From US20150329558A1, “FUSED HETEROCYCLIC COMPOUNDS AS ION CHANNEL MODULATORS” (Gilead Sciences, Inc., priority 2011, published 2015)
Read-outs that look alike come from different tables or passages of the source.

Legend:
[1] = Microsomal stability assay, human; format: in vitro ADME; settings: metabolic stability, human liver microsomes 0.5 mg/mL, substrate 3 uM
Experimental: (§1) The micorsomal stability assay is generally performed as follows. Format: 15 compounds (and 1 control verapamil) in 3 different species in duplicate sets Substrate: 3 uM Protein concentration: 0.5 mg/mL (for dog, rat, and human liver microsomes) Cofactor: 1×NADPH-Regenerating system Time-points: 2, 12, 25, 45, and 65 minutes [table] Sample preparation: 25 uL at each timepoint is added to plate with 225 uL quenching solution (50% MeOH, 25% ACN, 25% H2O, and 50 nM […]). After plates are vortexed, centrifuge for 30 minutes. Microsomal solutions: take 400 uL of 20 mg/mL microsomes and add to 13,680 uL 100 mM KPO4 buffer. Using an 8-channel, add 650 uL of this solution to the designated two columns on a short plate. The order should be dog microsomes in columns 1 and 2, rat microsomes in columns 3 and 4, and human microsomes in columns 5 and 6. Keep on ice before use. Place this plate in incubator 1 on the TECAN countertop.

[2] = Microsomal stability assay, rat; format: in vitro ADME; settings: metabolic stability, rat liver microsomes 0.5 mg/mL, substrate 3 uM
Experimental: as §1

[3] = target: wild-type human cardiac sodium channel, hNav1.5 (late INa) (Homo sapiens, UniProt Q14524); experiment: Late INa screening assay (QPatch whole cell patch clamp); format: cell-based
In short: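 Compounds tested at 1 μM final in extracellular solution against tefluthrin (10 μM)-enhanced late current. Automated patch clamp (23-25° C) on HEK293 expressing alpha subunit alone: −120 mV holding, 250 ms depolarization to −20 mV every 10 s. Read-out is percent inhibition of mean current over 225–250 ms.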

[4] = Microsomal stability assay, dog; format: in vitro ADME; settings: metabolic stability, dog liver microsomes 0.5 mg/mL, substrate 3 uM
Experimental: as §1

[5] = percent block of late INa, compound at 1 μM, 10 μM Tefluthrin, HEK293 hNav1.5, read-out: Late INa 1 μM

Sequence of wild-type human cardiac sodium channel, hNav1.5 (late INa) (Q14524 whole entry): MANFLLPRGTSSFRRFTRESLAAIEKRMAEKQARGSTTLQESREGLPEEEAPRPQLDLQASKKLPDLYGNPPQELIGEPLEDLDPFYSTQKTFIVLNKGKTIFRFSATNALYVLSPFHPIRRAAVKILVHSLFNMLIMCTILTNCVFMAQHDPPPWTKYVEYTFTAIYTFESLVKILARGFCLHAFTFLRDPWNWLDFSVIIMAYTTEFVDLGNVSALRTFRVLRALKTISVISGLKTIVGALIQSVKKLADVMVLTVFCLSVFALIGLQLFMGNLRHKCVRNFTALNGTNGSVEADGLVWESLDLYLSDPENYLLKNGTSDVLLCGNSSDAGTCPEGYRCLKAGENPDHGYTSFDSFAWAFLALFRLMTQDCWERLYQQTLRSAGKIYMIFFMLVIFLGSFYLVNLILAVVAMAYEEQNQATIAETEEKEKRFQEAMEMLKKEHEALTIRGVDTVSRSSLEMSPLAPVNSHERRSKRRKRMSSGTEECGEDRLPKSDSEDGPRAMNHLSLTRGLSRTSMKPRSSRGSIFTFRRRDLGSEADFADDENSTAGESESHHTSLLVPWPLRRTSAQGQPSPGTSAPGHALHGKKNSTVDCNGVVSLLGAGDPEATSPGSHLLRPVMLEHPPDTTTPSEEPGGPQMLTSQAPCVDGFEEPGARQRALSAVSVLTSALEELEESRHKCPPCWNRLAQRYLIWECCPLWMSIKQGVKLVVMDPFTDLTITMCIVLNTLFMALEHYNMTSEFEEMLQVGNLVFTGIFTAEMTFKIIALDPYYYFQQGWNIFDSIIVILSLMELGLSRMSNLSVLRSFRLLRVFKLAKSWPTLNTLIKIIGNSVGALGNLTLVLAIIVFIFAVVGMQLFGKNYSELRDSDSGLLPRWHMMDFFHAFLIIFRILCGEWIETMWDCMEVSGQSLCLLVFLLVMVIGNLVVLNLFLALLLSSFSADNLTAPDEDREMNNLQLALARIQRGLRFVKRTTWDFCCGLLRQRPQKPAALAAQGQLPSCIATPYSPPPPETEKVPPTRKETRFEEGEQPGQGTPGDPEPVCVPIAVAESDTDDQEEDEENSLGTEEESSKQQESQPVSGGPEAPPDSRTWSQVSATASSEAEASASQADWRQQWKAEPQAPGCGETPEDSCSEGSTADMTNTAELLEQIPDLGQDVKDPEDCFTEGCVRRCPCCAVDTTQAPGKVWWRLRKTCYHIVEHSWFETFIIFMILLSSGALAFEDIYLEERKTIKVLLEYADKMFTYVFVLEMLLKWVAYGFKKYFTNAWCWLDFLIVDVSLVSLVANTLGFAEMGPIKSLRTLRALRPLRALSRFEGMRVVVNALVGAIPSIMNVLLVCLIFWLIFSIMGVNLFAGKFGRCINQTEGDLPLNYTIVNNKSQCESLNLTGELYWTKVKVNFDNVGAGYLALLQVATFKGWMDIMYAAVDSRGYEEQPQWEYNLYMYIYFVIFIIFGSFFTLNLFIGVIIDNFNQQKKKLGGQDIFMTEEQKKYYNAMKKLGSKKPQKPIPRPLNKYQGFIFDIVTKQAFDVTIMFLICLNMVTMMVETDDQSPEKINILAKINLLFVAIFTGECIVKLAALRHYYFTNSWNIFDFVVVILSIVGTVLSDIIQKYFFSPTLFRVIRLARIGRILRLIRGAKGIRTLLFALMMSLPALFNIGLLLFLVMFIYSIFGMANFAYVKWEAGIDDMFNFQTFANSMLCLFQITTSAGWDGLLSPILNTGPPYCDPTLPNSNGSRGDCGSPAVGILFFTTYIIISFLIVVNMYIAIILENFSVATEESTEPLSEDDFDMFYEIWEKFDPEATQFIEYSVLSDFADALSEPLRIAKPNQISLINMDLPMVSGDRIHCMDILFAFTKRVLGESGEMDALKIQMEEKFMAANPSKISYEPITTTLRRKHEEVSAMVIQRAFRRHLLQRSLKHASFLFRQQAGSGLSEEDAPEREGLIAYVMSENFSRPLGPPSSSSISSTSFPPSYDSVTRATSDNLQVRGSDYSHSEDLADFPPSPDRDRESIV

| Structure (SMILES) | MS Human THalf [1] | MS Rat THalf [2] | MS Dog THalf [4] | inhibition at 1 µM [3, 5] | inhibition at 1 µM ([3]; % inhibition at 1 μM, read-out: NAv1.5*-LATE-) |
| --- | --- | --- | --- | --- | --- |
| O=c1c2cc(-c3ccc(OC(F)(F)F)cc3)ccc2nnn1CCc1ccccn1 [II-15, 3-(2-(pyridin-2-yl)ethyl)-6-(4-(trifluoromethoxy)phenyl)benzo[d][1,2,3]triazin-4(3H)-one] | 33 min | 19 min | 23 min | 71% |  |
| Cc1nonc1Cn1cnc2ccc(-c3ccc(OC(F)(F)F)cc3)cc2c1=O [IV-3, 3-((4-methyl-1,2,5-oxadiazol-3-yl)methyl)-6-(4-(trifluoromethoxy)phenyl)quinazolin-4(3H)-one] | 366 min | 219 min | 54 min | 37% |  |
| O=c1c2cc(-c3ccc(OC(F)(F)F)cc3)ccc2nnn1CCn1cccn1 [II-13, 3-(2-(1H-pyrazol-1-yl)ethyl)-6-(4-(trifluoromethoxy)phenyl)benzo[d][1,2,3]triazin-4(3H)-one] | 149 min | 25 min | 36 min | 67% |  |
| CCc1nccn1CC1(Cn2nnc3ccc(-c4ccc(OC(F)(F)F)cc4)cc3c2=O)CC1 [II-57, 3-((1-((2-ethyl-1H-imidazol-1-yl)methyl)cyclopropyl)methyl)-6-(4-(trifluoromethoxy)phenyl)benzo[d][1,2,3]triazin-4(3H)-one] | 2 min | 2 min | 4 min | 38% |  |
| O=c1c2cc(-c3ccc(OC(F)(F)F)cc3)ccc2nnn1Cc1coc(C2CCC2)n1 [II-98, 3((2-cyclobutyloxazol-4-yl)methyl)-6-(4-(trifluoromethoxy)phenyl)benzo[d][1,2,3]triazin-4(3H)-one] | 31 min | 16 min | 34 min | 41% |  |
| Cc1noc(Cn2nnc3ccc(-c4ccc(Oc5ccccc5)cc4)cc3c2=O)n1 [II-7, 3-((3-methyl-1,2,4-oxadiazol-5-yl)methyl)-6-(4-phenoxyphenyl)benzo[d][1,2,3]triazin-4(3H)-one] | 10 min | 10 min | 4 min | 75% |  |
| CC(C)(COc1ncccn1)Cn1nnc2ccc(-c3ccc(OC(F)(F)F)cc3)cc2c1=O [II-84, 3-(2,2-dimethyl-3-(pyrimidin-2-yloxy)propyl)-6-(4-(trifluoromethoxy)phenyl)benzo[d][1,2,3]triazin-4(3H)-one] | 107 min | 51 min | 98 min | 34% |  |
| O=c1c2cc(-c3ccc(OC(F)(F)F)cc3)ccc2nnn1C1CCN(CC(F)(F)F)CC1 [II-71, 3-(1-(2,2,2-trifluoroethyl)piperidin-4-yl)-6-(4-(trifluoromethoxy)phenyl)benzo[d][1,2,3]triazin-4(3H)-one] | 75 min | 94 min | 78 min | 25% |  |
| Cc1noc(Cn2nnc3ccc(-c4ccc(Oc5ccc(Cl)cc5)cc4)cc3c2=O)n1 [II-16, 6-(4-(4-chlorophenoxyl)phenyl)-3-((3-methyl-1,2,4-oxadiazol-5-yl)methyl)benzo[d][1,2,3]triazin-4(3H)-one] | 74 min | 102 min | 31 min | 76% |  |
| CC(c1nc(-c2ncccn2)no1)n1nnc2ccc(-c3ccc(OC(F)(F)F)cc3)cc2c1=O (centres unmarked) [II-53, 3-(1-(3-(pyrimidin-2-yl)-1,2,4-oxadiazol-5-yl)ethyl)-6-(4-(trifluoromethoxy)phenyl)benzo[d][1,2,3]triazin-4(3H)-one] | > 395 min | > 395 min | 646 min | 29% |  |
| O=c1c2cc(-c3cnc(N4CCCCC4)nc3)ccc2nnn1CCOc1ncccn1 [Compound V-12, 6-(2-(piperidin-1-yl)pyrimidin-5-yl)-3-(2-(pyrimidin-2-yloxy)ethyl)benzo[d][1,2,3]triazin-4(3H)-one] | 9 min | 11 min | 5 min | 26% |  |
| O=C(Cn1nnc2ccc(-c3ccc(OC(F)(F)F)cc3)cc2c1=O)N1CCN(c2ncccn2)CC1 [II-41, 3-(2-oxo-2-(4-(pyrimidin-2-yl)piperazin-1-yl)ethyl)-6-(4-(trifluoromethoxy)phenyl)benzo[d][1,2,3]triazin-4(3H)-one] | 28 min | 16 min | 80 min | 25% |  |

Now from value to compound, other results behind:

| MS Human THalf [1] | MS Rat THalf [2] | MS Dog THalf [4] | Structure (SMILES) | inhibition at 1 µM [3, 5] | inhibition at 1 µM ([3]; % inhibition at 1 μM, read-out: NAv1.5*-LATE-) |
| --- | --- | --- | --- | --- | --- |
| 34 min | 22 min | 28 min | Cc1ccn(CCn2ncc3ccc(-c4ccc(OC(F)(F)F)cc4)cc3c2=O)n1 [III-17, 2-(2-(3-methyl-1H-pyrazol-1-yl)ethyl)-7-(4-(trifluoromethoxy)phenyl)phthalazin-1 (2H)-one] | 49% |  |
| 13 min | 9 min | 18 min | Cc1cc(C)n(CCn2ncc3ccc(-c4ccc(OC(F)(F)F)cc4)cc3c2=O)n1 [III-24, 2-(2-(3,5-dimethyl-1H-pyrazol-1-yl)ethyl)-7-(4-(trifluoromethoxy)phenyl)phthalazin-1 (2H)-one] | 28% |  |
| 170 min | 7 min | 197 min | Cn1ccnc1C(=O)N1CCc2ccc(-c3ccc(C(F)(F)F)cc3)cc2C1 [IX-80, (1-methyl-1H-imidazol-2-yl)(7-(4-(trifluoromethyl)phenyl)-3,4-dihydroisoquinolin-2(1H)-yl)methanone] | 40% |  |
| 125 min | 192 min | 177 min | O=C(NCc1ncccn1)N1CCc2ccc(-c3ccc(C(F)(F)F)cc3)cc2C1 [IX-89, N-(pyrimidin-2-ylmethyl)-7-(4-(trifluoromethyl)phenyl)-3,4-dihydroisoquinoline-2(1H)-carboxamide] | 33% |  |
| 46 min | 32 min | 31 min | O=c1c2cc(-c3ccc(OC(F)(F)F)cc3)ccc2cnn1CCc1ccncn1 [III-36, 2-(2-(pyrimidin-4-yl)ethyl)-7-(4-(trifluoromethoxy)phenyl)phthalazin-1 (2H)-one] | 39% |  |
| 25 min | 20 min | 23 min | Cc1cccc(CCn2ncc3ccc(-c4ccc(OC(F)(F)F)cc4)cc3c2=O)n1 [III-18, 2-(2-(6-methylpyridin-2-yl)ethyl)-7-(4-(trifluoromethoxy)phenyl)phthalazin-1 (2H)-one] | 37% |  |
| 251 min | 55 min | 77 min | O=c1c2cc(-c3ccc(OC(F)(F)F)cc3)ccc2cnn1Cc1cccnc1Br [III-14, 2-((2-bromopyridin-3-yl)methyl)-7-(4-(trifluoromethoxy)phenyl)phthalazin-1 (2H)-one] | 39% |  |
| 41 min | 54 min | 61 min | O=c1c2cc(-c3ccc(OC(F)(F)F)cc3)ccc2cnn1Cc1cccnc1C1CC1 [III-20] | 28% |  |
| 61 min | 9 min | 96 min | CN(C(=O)N1CCc2ccc(-c3ccc(C(F)(F)F)cc3)cc2C1)c1ccccc1 [IX-50, N-methyl-N-phenyl-7-(4-(trifluoromethyl)phenyl)-3,4-dihydroisoquinoline-2(1H)-carboxamide] | 29% |  |
| 41 min | 18 min | 18 min | O=c1c2cc(-c3ccc(OC(F)(F)F)cc3)ccc2cnn1CCn1cccc1 [III-10, 2-(2-(1H-pyrrol-1-yl)ethyl)-7-(4-(trifluoromethoxy)phenyl)phthalazin-1(2H)-one] | 33% |  |
| 245 min | 302 min | 370 min | O=C(N1CCc2ccc(-c3ccc(C(F)(F)F)cc3)cc2C1)N1CC(O)C1 [IX-108, (3-hydroxyazetidin-1-yl)(7-(4-(trifluoromethyl)phenyl)-3,4-dihydroisoquinolin-2(1H)-yl)methanone] | 30% | 30% |
| 80 min | 37 min | 149 min | O=C(NCc1ccco1)N1CCc2ccc(-c3ccc(C(F)(F)F)cc3)cc2C1 [IX-48, N-(furan-2-ylmethyl)-7-(4-(trifluoromethyl)phenyl)-3,4-dihydroisoquinoline-2(1H)-carboxamide] | 31% |  |
| 252 min | 86 min | 191 min | Cc1cc(C)nc(Cn2ncc3ccc(-c4ccc(OC(F)(F)F)cc4)cc3c2=O)n1 [III-22] | 35% |  |
